This is an account of results in patent publication US6054318A, “Expression of the glucose oxidase gene in transgenic organisms” (Commonwealth Scientific And Industrial Research Organization, priority 1994, dated 2000).

The test system of assay [1] is Rhyzoctonia solani. Nature of the assay: In vitro growth of R. solani in PD broth, microtitre plate reader. Type of assay: cell-based. The conditions noted are these: PD broth plus gluconic acid. The method, then:
Glucose oxidase was examined in vitro for its ability to inhibit the growth of an Australian isolate of R. solani. Different concentrations of A. niger glucose oxidase suspended in potato dextrose broth and different amounts of filtrate from T. flavus 32908 and GOH-1 were inoculated with R. solani and fungal growth was monitored using a microtitre plate reader. Duplicates were performed for each experiment and the experiment was repeated twice. […] Growth inhibition curves for R. solani were calculated 26 hours after the start of fungal growth (FIG. 5). […] These values are approximately twice the glucose oxidase IC50 value determined for V. dahliae (2.2 μg/ml).

Assay [2] has as its system Verticillium dahliae microsclerotia and mycelia. The conditions noted are these: added to growth media; cited from earlier work.
In assay [3] the test system is Talaromyces flavus glucose oxidase, wild type. The conditions noted are these: T. flavus glucose oxidase; read-out: Km for β-D-glucose; cited from earlier work.
The target of assay [4] is Aspergillus niger glucose oxidase, wild type (Aspergillus niger, UniProt P13006). The conditions noted are these: A. niger glucose oxidase; read-out: Km for β-D-glucose; cited from earlier work.
Sequence of Aspergillus niger glucose oxidase, wild type (P13006 17-605): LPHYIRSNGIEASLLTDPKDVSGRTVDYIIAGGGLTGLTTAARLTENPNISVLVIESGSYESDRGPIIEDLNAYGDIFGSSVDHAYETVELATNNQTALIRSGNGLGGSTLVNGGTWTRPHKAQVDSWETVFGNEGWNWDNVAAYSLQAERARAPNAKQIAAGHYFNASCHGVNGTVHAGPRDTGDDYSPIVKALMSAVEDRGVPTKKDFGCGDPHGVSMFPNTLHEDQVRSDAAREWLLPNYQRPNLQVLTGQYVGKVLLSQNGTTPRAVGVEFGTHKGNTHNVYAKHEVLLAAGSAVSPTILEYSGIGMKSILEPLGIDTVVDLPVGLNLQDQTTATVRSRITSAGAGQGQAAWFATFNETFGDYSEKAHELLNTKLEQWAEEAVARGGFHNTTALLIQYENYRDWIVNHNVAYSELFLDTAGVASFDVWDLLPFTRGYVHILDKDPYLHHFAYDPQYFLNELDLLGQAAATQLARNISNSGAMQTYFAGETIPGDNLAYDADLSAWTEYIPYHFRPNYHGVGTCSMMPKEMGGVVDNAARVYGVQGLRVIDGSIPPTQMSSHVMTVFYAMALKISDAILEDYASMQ

With `O=C(O)[C@H](O)[C@@H](O)[C@H](O)[C@H](O)CO` [gluconic acid], in assay [1], the “growth profile of R. solani compared with PD broth alone” value was “very similar”. In addition, the “inhibition of microsclerotial germination and mycelial growth” value (from here on “inhibition”) in assay [2] is reported as “did not cause inhibition”.

With `O=C[C@H](O)[C@@H](O)[C@H](O)[C@H](O)CO` [glucose], the “inhibition” value in assay [2] is “did not cause inhibition”.

For the compound `OO` [hydrogen peroxide], the “inhibition” value in assay [2] was “inhibited microsclerotial germination and mycelial growth”.

Broadly, the Km is the substrate concentration at which the rate is half of its maximum. In the case of `OC[C@H]1O[C@@H](O)[C@H](O)[C@@H](O)[C@@H]1O` [β-D-glucose], the results for the Michaelis-Menten constant (Km) in assay [3] and in assay [4] were 10.9 mM and 27 mM, respectively.
